{"source": "paper PMC11054727", "about": "(Viruses, 2024)", "biological_target": "trimeric construct of the SARS-CoV-2 S2 segment (Severe acute respiratory syndrome coronavirus 2, UniProt P0DTC2, A892P/A899P/A942P/F817P/K986P/V987P)", "format": "binding"}
{"substance": "Ivermectin", "values": [{"measurement": "binding to S2", "result": "did not show any binding"}]}
